Peptide text beside a SMILES is read from it.
How the values were obtained:
Assay in all cases: Antibacterial activity, ATP assay (BacTiter-Glo)
Assay type in all cases: cell-based
[1] = system: Staphylococcus epidermidis JCM 2414; settings: ATP assay concentration: peptides 10, TOB 1.0, CPFX 0.5, OX 0.5, MEPM 0.125 μg/ml
Method: (§1) That is, using BacTiter-Glo Microbial Cell Viability Assay kit available from PROMEGA, the antibacterial activity of the peptides was evaluated from the viability of bacteria. […] With respect to the strains, Staphylococcus aureus ATCC29213 (S. aureus ATCC29213) as Gram-positive bacteria, or, alternatively, Pseudomonas aeruginosa (P. aeruginosa ATCC27853) as Gram-negative bacteria, was used. The bacteria were cultured in media for 3 to 4 hours, and thereafter absorbances at A600 were measured. Bacterial suspensions were diluted with Mueller-Hinton broth (MHB) according to McFarland #0.5. Each strain was added so as to attain about 0.5−1×10^5 CFU/mL (final concentration) in terms of Escherichia coli. […] A solution to which the peptides were not added was considered as a negative control, and a solution to which tobramycin (TOB) was added was considered as a positive control. […] Relative values were calculated by comparison with the negative control, and these values were regarded as the viability. […] ATP (%) of the antibacterial activity was measured in the same manner as mentioned above, and the “minimum inhibitory concentration (MIC)” was measured as follows. MIC is the lowest concentration of an agent that may inhibit the growth of a bacterium. MIC is used as a parameter for the efficacy of an antibacterial agent, for the strength of bacterial sensitivity, or the like. The bacteria can grow (proliferate) when the concentration is not higher than MIC, and cannot grow when the concentration is higher than MIC. Its measurement is carried out according to a method defined as a standard method by Japanese Society of Chemotherapy or CLINICAL AND LABORATORY […] (CLSI), but, in this Example, its measurement was carried out by a broth microdilution method in accordance with “M100-S17/M7-A7” (Performance Standards for Antimicrobial Susceptibility Testing; Seventeenth Informational Supplement, Vol. 27 No. 1) published by CLSI on January, 2007. That is, sensitivity test of agents was carried out using a microtiter plate or test tubes. With respect to each strain, Escherichia coli: ATCC 25922 (Escherichia coli ATCC 25922), Pseudomonas aeruginosa: ATCC 27853 (Pseudomonas aeruginosa ATCC 27853), Staphylococcus aureus: ATCC29213 (Staphylococcus aureus ATCC29213), Klebsiella pneumoniae: JCM 1662 (Klebsiella pneumoniae JCM 1662), enterobacteria (1): JCM 1232 (Enterobacter cloacae JCM 1232), enterobacteria (2): JCM 1235 (Enterobacter aerogenes JCM 1235), and Staphylococcus epidermidis: JCM 2414 (Staphylococcus epidermidis JCM 2414), were used. […] As the concentrations of the agents in ATP assay, the concentrations as described in the Tables were used.

[2] = system: Escherichia coli ATCC 25922; settings: ATP assay concentration: peptides 10, TOB 1.0, CPFX 0.015, OX 0.5, MEPM 0.1 μg/ml
Method: as §1

[3] = system: Klebsiella pneumoniae JCM 1662; settings: ATP assay concentration: peptides 10, TOB 4.0, CPFX 1.0, OX 0.5, MEPM 8.0 μg/ml
Method: as §1

[4] = system: Enterobacteria (2): Enterobacter aerogenes JCM 1235; settings: ATP assay concentration: peptides 10, TOB 4.0, CPFX 1.0, OX 4.0, MEPM 8.0 μg/ml
Method: as §1

[5] = system: Pseudomonas aeruginosa ATCC27853; settings: for ATP (%) mean, Pseudomonas aeruginosa: Table 4-1, ATP assay concentration: peptides 10, TOB 1.0, CPFX 1.0, OX 0.5, MEPM 1.0 μg/ml
Method: (§2) The antibacterial activity of the polypeptides was measured using an ATP assay method. That is, using BacTiter-Glo Microbial Cell Viability Assay kit available from PROMEGA, the antibacterial activity of the peptides was evaluated from the viability of bacteria. […] With respect to the strains, Staphylococcus aureus ATCC29213 (S. aureus ATCC29213) as Gram-positive bacteria, or, alternatively, Pseudomonas aeruginosa (P. aeruginosa ATCC27853) as Gram-negative bacteria, was used. The bacteria were cultured in media for 3 to 4 hours, and thereafter absorbances at A600 were measured. Bacterial suspensions were diluted with Mueller-Hinton broth (MHB) according to McFarland #0.5. Each strain was added so as to attain about 0.5−1×10^5 CFU/mL (final concentration) in terms of Escherichia coli. […] A solution to which the peptides were not added was considered as a negative control, and a solution to which tobramycin (TOB) was added was considered as a positive control. […] Relative values were calculated by comparison with the negative control, and these values were regarded as the viability. ATP (%) of the antibacterial activity was measured in the same manner as mentioned above, and the “minimum inhibitory concentration (MIC)” was measured as follows. MIC is the lowest concentration of an agent that may inhibit the growth of a bacterium. MIC is used as a parameter for the efficacy of an antibacterial agent, for the strength of bacterial sensitivity, or the like. The bacteria can grow (proliferate) when the concentration is not higher than MIC, and cannot grow when the concentration is higher than MIC. Its measurement is carried out according to a method defined as a standard method by Japanese Society of Chemotherapy or CLINICAL AND LABORATORY […] (CLSI), but, in this Example, its measurement was carried out by a broth microdilution method in accordance with “M100-S17/M7-A7” (Performance Standards for Antimicrobial Susceptibility Testing; Seventeenth Informational Supplement, Vol. 27 No. 1) published by CLSI on January, 2007. That is, sensitivity test of agents was carried out using a microtiter plate or test tubes. With respect to each strain, Escherichia coli: ATCC 25922 (Escherichia coli ATCC 25922), Pseudomonas aeruginosa: ATCC 27853 (Pseudomonas aeruginosa ATCC 27853), Staphylococcus aureus: ATCC29213 (Staphylococcus aureus ATCC29213), Klebsiella pneumoniae: JCM 1662 (Klebsiella pneumoniae JCM 1662), enterobacteria (1): JCM 1232 (Enterobacter cloacae JCM 1232), enterobacteria (2): JCM 1235 (Enterobacter aerogenes JCM 1235), and Staphylococcus epidermidis: JCM 2414 (Staphylococcus epidermidis JCM 2414), were used. […] As the concentrations of the agents in ATP assay, the concentrations as described in the Tables were used.

[6] = system: Staphylococcus aureus ATCC29213; settings: for ATP (%) mean, Staphylococcus aureus: Table 4-1, ATP assay concentration: peptides 10, TOB 1.0, OX 0.5 μg/ml
Method: as §2

[7] = Table 3, peptides 10 μg/mL, 3 hours, ATP relative to negative control

Row | SMILES | ATP (%) mean, Staphylococcus epidermidis [1] | ATP (%) mean, Escherichia coli [2] | ATP (%) mean, Klebsiella pneumoniae [3] | ATP (%) mean, Enterobacteria (2) [4] | antibacterial activity against Pseudomonas aeruginosa compared with AG30-5C ([5]; 10 μg/mL, ATP assay) | ATP (%) mean, Pseudomonas aeruginosa [5] | antibacterial activity against Staphylococcus aureus compared with AG30-5C ([6]; 10 μg/mL, ATP assay) | ATP (%) mean, Staphylococcus aureus [6] | Viability (%) Pseudomonas aeruginosa [5, 7] | Viability (%) Staphylococcus aureus [6, 7]
1 | CSCC[C@H](NC(=O)[C@H](CCCNC(=N)N)NC(=O)[C@H](CCCCN)NC(=O)[C@H](CC(C)C)NC(=O)[C@H](CCCNC(=N)N)NC(=O)[C@H](Cc1c[nH]cn1)NC(=O)[C@H](CC(C)C)NC(=O)[C@H](Cc1ccccc1)NC(=O)[C@H](CCCNC(=N)N)NC(=O)[C@H](CC(C)C)NC(=O)[C@@H](N)CCC(=O)O)C(=O)N[C@@H](CCCNC(=N)N)C(=O)N[C@@H](CCCCN)C(=O)N[C@@H](CCCNC(=N)N)C(=O)N[C@@H](CC(C)C)C(=O)N[C@@H](CCCCN)C(=O)N[C@@H](CCCNC(=N)N)C(=O)N[C@@H](CCCCN)C(=O)N[C@@H](CC(C)C)C(=O)N[C@@H](CCCNC(=N)N)C(N)=O [SR-3] (H-ELRFLHRLKRMRKRLKRKLR-NH2; N-terminus assumed) | 4.1% | 16.5% | 20.3% | 23.5% | higher antibacterial activity against Pseudomonas aeruginosa than AG30-5C | 3.3% | higher antibacterial activity against Staphylococcus aureus than AG30-5C | 3.5% |  | 
2 | Cc1onc(-c2ccccc2)c1C(=O)N[C@@H]1C(=O)N2[C@@H]1SC(C)(C)[C@@H]2C(=O)O [OX, oxacillin, reference compound] | 101.4% | 114.4% | 142.2% | 86.9% |  | 83.1% |  | 72.8% |  | 
3 | NC[C@H]1O[C@H](O[C@H]2[C@H](O)[C@@H](O[C@H]3O[C@H](CO)[C@@H](O)[C@H](N)[C@H]3O)[C@H](N)C[C@@H]2N)[C@H](N)C[C@@H]1O [TOB, tobramycin, reference compound] | 4.2% | 3.8% | 3.8% | 0.5% |  | 1.7% |  | 3.1% | 1.8% | 3.5%

From patent US9376470B2, “Polypeptide having angiogenesis-inducing activity and antibacterial activity, and use thereof for medical purposes” (FunPep Inc., priority 2008, dated 2016)
